Results: patent US9029325B2, “Amylin analogues and pharmaceutical compositions thereof” (Novo Nordisk A/S, priority 2011, dated 2015)
Starred links: 1 amine or outer side, 2 acyl side, 3 side chain; linkers in the order of their positions; H or OH if unused. Positions of bridges follow the written chain, without caps; N, C: chain ends. Residues, ends and D or L forms follow the SMILES beside them. *: point of attachment. C20 diacid = O=C(O)CCCCCCCCCCCCCCCCCCC(=O)*; γGlu = O=C(O)[C@H](CCC(=O)[*:2])N[*:1]

Assay: Assay (III) ThT fibrillation assay for physical stability
Type: physicochemical
Conditions: for Th T pH 4.0 lag time (h): 37° C., orbital shaking 960 rpm; for ThT pH 4.0 lag time: Table 9
Method in brief: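 Freshly prepared samples, pH adjusted with NaOH and HClO4 or HCl, received ThT at 1 μM final and were incubated at 37° C with orbital shaking at 960 rpm. Fluorescence (ex 444 nm, em 485 nm) was read every 20 minutes; […], with polypeptide concentration by reverse HPLC before and after.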

| Th T pH 4.0 lag time (h) | ThT pH 4.0 lag time [hr] | SMILES |
| --- | --- | --- |
| >45 | >45 | CC[C@H](C)[C@H](NC(=O)[C@@H]1CCCN1C(=O)CNC(=O)[C@H](Cc1ccccc1)NC(=O)[C@H](CC(N)=O)NC(=O)[C@H](CCC(N)=O)NC(=O)[C@H](CO)NC(=O)[C@H](CO)NC(=O)[C@H](Cc1c[nH]cn1)NC(=O)[C@H](CCCNC(=N)N)NC(=O)[C@H](CC(C)C)NC(=O)[C@H](Cc1ccccc1)NC(=O)[C@H](CCC(=O)O)NC(=O)[C@H](C)NC(=O)[C@H](CC(C)C)NC(=O)[C@H](CCCNC(=N)N)NC(=O)[C@H](CCC(N)=O)NC(=O)[C@@H](NC(=O)[C@H](C)NC(=O)[C@@H]1CSSC[C@H](NC(=O)[C@H](CCC(=O)O)NC(=O)[C@H](CCCNC(=N)N)NC(=O)[C@H](CCC(=O)O)NC(=O)CC[C@H](NC(=O)CCCCCCCCCCCCCCCCCCC(=O)O)C(=O)O)C(=O)N[C@@H](CC(N)=O)C(=O)N[C@@H]([C@@H](C)O)C(=O)N[C@@H](C)C(=O)N[C@@H]([C@@H](C)O)C(=O)N1)[C@@H](C)O)C(=O)N[C@@H](CC(C)C)C(=O)N1CCC[C@H]1C(=O)N1CCC[C@H]1C(=O)N[C@H](C(=O)N[C@@H](CC(N)=O)C(=O)N[C@H](C(=O)NCC(=O)N[C@@H](CO)C(=O)N[C@@H](CCC(N)=O)C(=O)N[C@H](C(=O)N1CCC[C@H]1C(N)=O)[C@@H](C)O)C(C)C)[C@@H](C)O [Example 162, N-alpha-[(S)-4-Carboxy-4-(19-carboxynonadecanoylamino)butyryl]-Glu-Arg-[Glu1, Glu14, Arg17, Gln21, Gln35, Pro37]-pramlintide] ({C20 diacid-γGlu}-ERECNTATCATQRLAEFLRHSSQNFGPILPPTNVGSQTP-NH2; disulfide 4-9) |
| >45 | >45 | CC[C@H](C)[C@H](NC(=O)[C@@H]1CCCN1C(=O)CNC(=O)[C@H](Cc1ccccc1)NC(=O)[C@H](CC(N)=O)NC(=O)[C@H](CCC(N)=O)NC(=O)[C@H](CO)NC(=O)[C@H](CO)NC(=O)[C@H](Cc1c[nH]cn1)NC(=O)[C@H](CCCNC(=N)N)NC(=O)[C@H](CC(C)C)NC(=O)[C@H](Cc1ccccc1)NC(=O)[C@H](CCC(=O)O)NC(=O)[C@H](C)NC(=O)[C@H](CC(C)C)NC(=O)[C@H](CCCNC(=N)N)NC(=O)[C@H](CCC(N)=O)NC(=O)[C@@H](NC(=O)[C@H](C)NC(=O)[C@@H]1CSSC[C@H](NC(=O)[C@H](CCC(=O)O)NC(=O)[C@H](CCCNC(=N)N)NC(=O)[C@H](CCC(=O)O)NC(=O)CC[C@H](NC(=O)CCCCCCCCCCCCCCCCCCC(=O)O)C(=O)O)C(=O)N[C@@H](CC(N)=O)C(=O)N[C@@H]([C@@H](C)O)C(=O)N[C@@H](C)C(=O)N[C@@H]([C@@H](C)O)C(=O)N1)[C@@H](C)O)C(=O)N[C@@H](CC(C)C)C(=O)N1CCC[C@H]1C(=O)N1CCC[C@H]1C(=O)N[C@H](C(=O)N[C@@H](CCC(N)=O)C(=O)N[C@H](C(=O)NCC(=O)N[C@@H](CO)C(=O)N[C@@H](CCC(N)=O)C(=O)N[C@H](C(=O)N1CCC[C@H]1C(N)=O)[C@@H](C)O)C(C)C)[C@@H](C)O [Example 163, N-alpha-[(S)-4-Carboxy-4-(19-carboxynonadecanoylamino)butyryl]-Glu-Arg-[Glu1, Glu14, Arg17, Gln21, Gln31, Gln35, Pro37]-pramlintide] ({C20 diacid-γGlu}-ERECNTATCATQRLAEFLRHSSQNFGPILPPTQVGSQTP-NH2; disulfide 4-9) |
| >45 | >45 | CC[C@H](C)[C@H](NC(=O)[C@@H]1CCCN1C(=O)CNC(=O)[C@H](Cc1ccccc1)NC(=O)[C@H](CCC(N)=O)NC(=O)[C@H](CCC(N)=O)NC(=O)[C@H](CO)NC(=O)[C@H](CO)NC(=O)[C@H](Cc1c[nH]cn1)NC(=O)[C@H](CCCNC(=N)N)NC(=O)[C@H](CC(C)C)NC(=O)[C@H](Cc1ccccc1)NC(=O)[C@H](CCC(=O)O)NC(=O)[C@H](C)NC(=O)[C@H](CC(C)C)NC(=O)[C@H](CCCNC(=N)N)NC(=O)[C@H](CCC(N)=O)NC(=O)[C@@H](NC(=O)[C@H](C)NC(=O)[C@@H]1CSSC[C@H](NC(=O)[C@H](CCC(=O)O)NC(=O)[C@H](CCCNC(=N)N)NC(=O)[C@H](CCC(=O)O)NC(=O)CC[C@H](NC(=O)CCCCCCCCCCCCCCCCCCC(=O)O)C(=O)O)C(=O)N[C@@H](CC(N)=O)C(=O)N[C@@H]([C@@H](C)O)C(=O)N[C@@H](C)C(=O)N[C@@H]([C@@H](C)O)C(=O)N1)[C@@H](C)O)C(=O)N[C@@H](CC(C)C)C(=O)N1CCC[C@H]1C(=O)N1CCC[C@H]1C(=O)N[C@H](C(=O)N[C@@H](CCC(N)=O)C(=O)N[C@H](C(=O)NCC(=O)N[C@@H](CO)C(=O)N[C@@H](CCC(N)=O)C(=O)N[C@H](C(=O)N1CCC[C@H]1C(N)=O)[C@@H](C)O)C(C)C)[C@@H](C)O [Example 164, N-alpha-[(S)-4-Carboxy-4-(19-carboxynonadecanoylamino)butyryl]-Glu-Arg-[Glu1, Glu14, Arg17, Gln21, Gln22, Gln31, Gln35, Pro37]-pramlintide] ({C20 diacid-γGlu}-ERECNTATCATQRLAEFLRHSSQQFGPILPPTQVGSQTP-NH2; disulfide 4-9 (inferred); C-terminus assumed) |
| >45 | >45 | CC[C@H](C)[C@H](NC(=O)[C@@H]1CCCN1C(=O)CNC(=O)[C@H](Cc1ccccc1)NC(=O)[C@H](CO)NC(=O)[C@H](CO)NC(=O)[C@H](CO)NC(=O)[C@H](CO)NC(=O)[C@H](CCCNC(=N)N)NC(=O)[C@@H](NC(=O)[C@H](CC(C)C)NC(=O)[C@H](Cc1ccccc1)NC(=O)[C@H](CCC(=O)O)NC(=O)[C@H](C)NC(=O)[C@H](CC(C)C)NC(=O)[C@H](CCCNC(=N)N)NC(=O)[C@H](CCC(N)=O)NC(=O)[C@@H](NC(=O)[C@H](C)NC(=O)[C@@H]1CSSC[C@H](NC(=O)[C@H](CCCCN)NC(=O)CC[C@H](NC(=O)CCCCCCCCCCCCCCCCCCC(=O)O)C(=O)O)C(=O)N[C@@H](CC(N)=O)C(=O)N[C@@H]([C@@H](C)O)C(=O)N[C@@H](C)C(=O)N[C@@H]([C@@H](C)O)C(=O)N1)[C@@H](C)O)C(C)C)C(=O)N[C@@H](CC(C)C)C(=O)N[C@@H](CO)C(=O)N[C@@H](CO)C(=O)N[C@H](C(=O)N[C@@H](CC(=O)O)C(=O)N[C@H](C(=O)NCC(=O)N[C@@H](CO)C(=O)N[C@@H](CC(=O)O)C(=O)N[C@H](C(=O)N1CCC[C@H]1C(N)=O)[C@@H](C)O)C(C)C)[C@@H](C)O [Example 170, N-alpha-[(S)-4-Carboxy-4-(19-carboxynonadecanoylamino)butyryl]-[Glu14, Arg18, Ser21, Ser22, Ser28, Ser29, Asp31, Asp35, Pro37]-pramlintide] ({C20 diacid-γGlu}-KCNTATCATQRLAEFLVRSSSSFGPILSSTDVGSDTP-NH2; disulfide 2-7 (inferred); C-terminus assumed) |
